Legend:
Assay in all cases: Inhibitory Activity Assay
[1] = target: Proto-oncogene tyrosine-protein kinase receptor Ret (Homo sapiens, UniProt P07949)
[2] = target: Proto-oncogene tyrosine-protein kinase receptor Ret [V804M] (Human, UniProt P07949, V804M)
[3] = target: Proto-oncogene tyrosine-protein kinase receptor Ret [M918T] (Homo sapiens, UniProt P07949, M918T)
[4] = target: Coiled-coil domain-containing protein 6/Proto-oncogene tyrosine-protein kinase receptor Ret (Homo sapiens, UniProt P07949)
[5] = target: Proto-oncogene tyrosine-protein kinase receptor Ret [V804L] (Homo sapiens, UniProt P07949, V804L)
Chain of Proto-oncogene tyrosine-protein kinase receptor Ret [V804L] (P07949 29-1114 V804L limits assumed): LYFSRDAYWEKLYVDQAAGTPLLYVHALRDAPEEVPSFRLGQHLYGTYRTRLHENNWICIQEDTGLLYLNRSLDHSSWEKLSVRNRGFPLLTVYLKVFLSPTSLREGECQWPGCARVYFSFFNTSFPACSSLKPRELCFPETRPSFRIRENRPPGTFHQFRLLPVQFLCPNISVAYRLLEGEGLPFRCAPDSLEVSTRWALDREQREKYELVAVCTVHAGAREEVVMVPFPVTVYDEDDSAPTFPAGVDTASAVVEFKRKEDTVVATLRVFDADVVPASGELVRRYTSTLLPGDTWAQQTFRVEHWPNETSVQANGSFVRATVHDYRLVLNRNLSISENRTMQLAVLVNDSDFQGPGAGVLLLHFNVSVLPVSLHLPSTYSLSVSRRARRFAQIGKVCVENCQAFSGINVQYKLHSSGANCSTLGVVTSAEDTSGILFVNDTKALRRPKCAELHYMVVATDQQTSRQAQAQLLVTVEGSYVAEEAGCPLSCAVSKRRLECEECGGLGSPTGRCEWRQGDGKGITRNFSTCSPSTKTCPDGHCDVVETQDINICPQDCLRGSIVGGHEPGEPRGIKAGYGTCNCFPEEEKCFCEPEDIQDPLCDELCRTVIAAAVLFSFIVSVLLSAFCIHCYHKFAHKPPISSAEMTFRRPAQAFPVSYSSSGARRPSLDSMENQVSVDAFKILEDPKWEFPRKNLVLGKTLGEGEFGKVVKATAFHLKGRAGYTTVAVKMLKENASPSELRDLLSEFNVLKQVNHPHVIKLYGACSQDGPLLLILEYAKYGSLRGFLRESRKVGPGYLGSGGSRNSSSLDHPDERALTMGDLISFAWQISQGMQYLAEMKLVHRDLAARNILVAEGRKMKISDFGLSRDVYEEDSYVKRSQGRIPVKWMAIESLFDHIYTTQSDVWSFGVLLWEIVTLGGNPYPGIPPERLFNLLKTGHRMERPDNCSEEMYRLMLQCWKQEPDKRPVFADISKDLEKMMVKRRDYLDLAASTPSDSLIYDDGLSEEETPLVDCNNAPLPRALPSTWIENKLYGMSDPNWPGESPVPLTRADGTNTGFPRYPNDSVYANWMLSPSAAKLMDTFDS

Chain of Proto-oncogene tyrosine-protein kinase receptor Ret (P07949 whole entry): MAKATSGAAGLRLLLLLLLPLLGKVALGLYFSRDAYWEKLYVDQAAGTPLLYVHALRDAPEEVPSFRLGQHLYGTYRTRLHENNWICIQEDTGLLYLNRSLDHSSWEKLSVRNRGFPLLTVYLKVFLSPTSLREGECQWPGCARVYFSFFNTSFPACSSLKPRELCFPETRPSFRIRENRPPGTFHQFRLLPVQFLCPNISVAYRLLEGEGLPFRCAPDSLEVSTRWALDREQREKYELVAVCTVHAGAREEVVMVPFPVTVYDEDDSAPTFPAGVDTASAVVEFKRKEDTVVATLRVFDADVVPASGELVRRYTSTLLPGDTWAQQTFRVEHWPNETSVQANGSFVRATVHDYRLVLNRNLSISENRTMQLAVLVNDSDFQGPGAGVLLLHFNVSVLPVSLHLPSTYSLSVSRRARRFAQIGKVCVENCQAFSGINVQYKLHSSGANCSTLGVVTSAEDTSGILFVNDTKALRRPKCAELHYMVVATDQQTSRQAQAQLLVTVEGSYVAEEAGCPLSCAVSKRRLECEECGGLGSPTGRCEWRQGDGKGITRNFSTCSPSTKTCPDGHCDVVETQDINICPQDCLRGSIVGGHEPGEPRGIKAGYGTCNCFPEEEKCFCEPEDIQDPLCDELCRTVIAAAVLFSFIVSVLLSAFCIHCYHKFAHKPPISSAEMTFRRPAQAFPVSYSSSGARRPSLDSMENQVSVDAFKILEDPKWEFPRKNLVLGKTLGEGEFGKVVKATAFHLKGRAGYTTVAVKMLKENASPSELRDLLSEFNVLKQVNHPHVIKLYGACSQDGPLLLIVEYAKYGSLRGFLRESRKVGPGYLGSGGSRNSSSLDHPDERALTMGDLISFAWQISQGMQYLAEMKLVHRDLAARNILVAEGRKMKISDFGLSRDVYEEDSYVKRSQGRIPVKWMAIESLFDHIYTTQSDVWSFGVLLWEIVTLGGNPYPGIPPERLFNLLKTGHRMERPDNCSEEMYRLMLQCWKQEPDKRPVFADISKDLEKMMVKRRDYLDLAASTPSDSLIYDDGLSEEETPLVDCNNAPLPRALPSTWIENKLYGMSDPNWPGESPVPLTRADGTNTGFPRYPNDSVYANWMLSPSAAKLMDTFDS
Chain of Proto-oncogene tyrosine-protein kinase receptor Ret [V804M] (P07949 29-1114 V804M limits assumed): as the sequence (P07949 29-1114 V804L limits assumed) above, with L776M counted along it
Chain of Proto-oncogene tyrosine-protein kinase receptor Ret [M918T] (P07949 29-1114 M918T limits assumed): as the sequence (P07949 29-1114 V804L limits assumed) above, with L776V, M890T counted along it
Chain of Coiled-coil domain-containing protein 6/Proto-oncogene tyrosine-protein kinase receptor Ret (P07949 whole entry, the tested form may be a part): as the sequence (P07949 whole entry) above
Chain of Coiled-coil domain-containing protein 6/Proto-oncogene tyrosine-protein kinase receptor Ret (Q16204 whole entry, further chain, the tested form may be a part): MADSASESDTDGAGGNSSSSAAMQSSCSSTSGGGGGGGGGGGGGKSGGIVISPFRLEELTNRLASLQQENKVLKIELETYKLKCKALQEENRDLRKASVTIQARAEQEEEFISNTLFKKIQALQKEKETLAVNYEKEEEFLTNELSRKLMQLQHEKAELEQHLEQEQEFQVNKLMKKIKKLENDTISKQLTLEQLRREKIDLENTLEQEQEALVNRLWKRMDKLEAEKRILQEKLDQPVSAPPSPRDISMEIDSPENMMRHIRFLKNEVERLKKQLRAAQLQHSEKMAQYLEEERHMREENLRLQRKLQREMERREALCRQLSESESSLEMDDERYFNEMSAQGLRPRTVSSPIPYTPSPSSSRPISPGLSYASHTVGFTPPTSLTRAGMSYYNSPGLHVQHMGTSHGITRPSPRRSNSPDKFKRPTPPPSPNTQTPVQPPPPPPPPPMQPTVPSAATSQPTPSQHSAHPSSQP

## C#Cc1ccc(CN2C3CC2CN(c2ccc(-c4cc(-c5cnn(C)c5)cn5ncc(C#N)c45)cn2)C3)cn1 [US12209085, Example 186]
[1]
  IC50: 0.17 nM
[2]
  IC50: 0.76 nM

## C#Cc1ncc(CN2C3CC2CN(c2ccc(-c4cc(-c5cnn(C)c5)cn5ncc(C#N)c45)cn2)C3)cc1F [US12209085, Example 227]
[1]
  IC50: 0.13 nM
[2]
  IC50: 0.3 nM

## C#Cc1cccc(C(=O)NC2CCN(c3ccc(-c4cc(-c5cnn(C)c5)cn5ncc(C#N)c45)cn3)CC2)c1 [US12209085, Example 268]
[1]
  IC50: 2.69 nM
[3]
  IC50: 1.92 nM
[2]
  IC50: 30.8 nM
[4]
  IC50: 3.16 nM
[5]
  IC50: 2.35 nM

## C#CC#CCN1C2CC1CN(c1ccc(-c3cc(-c4cnn(C)c4)cn4ncc(C#N)c34)cn1)C2 [US12209085, Example 276]
[1]
  IC50: 0.39 nM
[2]
  IC50: 1.08 nM
